The assay addresses T1, IL-17A (Homo sapiens, UniProt Q16552).
T1 construct: purchased R&D 7955-IL
T1 sequence (Q16552 24-155): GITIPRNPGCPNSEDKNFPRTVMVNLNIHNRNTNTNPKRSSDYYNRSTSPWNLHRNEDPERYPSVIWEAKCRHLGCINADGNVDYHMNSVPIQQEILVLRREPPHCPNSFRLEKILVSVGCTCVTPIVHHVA
In words: HEK-Blue IL-17 cell assay (SEAP reporter, rhIL-17A/A stimulation). To be noted: HEK-Blue IL-17 cells with rhIL-17A/A, 20 hours at 37° C., absorbance at 405 nm. The assay is classed as cell-based. The method, then: 1. The test Compounds were 3-fold serial diluted from 10 mM for 10 doses in DMSO.
2. Prepare Reference Compounds (IL-17A-Inhibitor-1) were 3-fold serial diluted from 1 mM for 10 doses in DMSO.
3. Prepare 1000× Positive control (1 mM IL-17A-Inhibitor-1) and 1000× vehicle control (100% DMSO).
• a) Cells were cultured as the HEK-Blue™ IL-17 technical data sheet recommended. HEK-Blue IL-17 cells were assayed in the exponential growth phase. • b) Aspirate growth medium and rinse cells twice with PBS to remove phenol red. • c) Resuspend cells in test medium to a proper concentration. • d) Only cells with viability greater than 90% were used for assays. • e) Transfer 25nl of compound dilutions into 384-well assay plates using Echo655; • f) Seed 25 ul of HEK-Blue IL-17 cells at 8,000 cells/well into 384-well plate with rhIL-17A/A. • g) Cells were incubated for 20 hours at 37° C. under 5% CO2 atmosphere. • h) Transfer 2 ul of cells supernatant into per well of 384-well assay plates. • i) Add 20 ul of PNPP substrate. • j) Measure the Absorbance at 405 nm on Envision 2105 plate reader.
RLU signal (LUMempd) is calculated for each well. % Inhibition is calculated as follow: […]
Signalave_pc: The average signal for the positive controls across the plate.
Signalave_vc: The average signal for negative controls across the plate.
Calculate IC50 and Plot effect-dose curve of cmpds:
Calculate IC50 by fitting % Inhibition values and log of compound concentrations to nonlinear regression (dose response−variable slope) with Graphpad 8.0.

The term pIC50 denotes the negative decadic logarithm of the IC50, by convention in mol/L. Read a high pIC50 as a small IC50.

Structures are written as SMILES. pIC50: −log10 of the molar value.

The compound `CC(=O)N1CC(c2ccc(NC(=O)[C@@H](NC(=O)c3ccnn3C(C)C)C3CCCCCC3)cc2)[C@H](C(=O)N2CC(F)(F)C(F)(F)C2)C1` (stereo partly drawn) [Cis-62] gave a pIC50 of 7.40. Regarding `COC(=O)N1C[C@H](c2ccc(NC(=O)[C@@H](NC(=O)c3ccnn3C(C)C)C3CCCCCC3)cc2)[C@H](C(=O)N2CC(F)(F)C2)C1` [Example 1, methyl (3S,4S)-3-(4-((S)-2-cycloheptyl-2-(1-isopropyl-1H-pyrazole-5-carboxamido)acetamido)phenyl)-4-(3,3-difluoroazetidine-1-carbonyl)pyrrolidine-1-carboxylate], the negative-log IC50 (pIC50) was 7.81. On to `COC(=O)N1C[C@H](C(=O)N2CC(F)(F)C2)[C@@H](c2ccc(NC(=O)[C@@H](NC(=O)c3ccnn3C(C)C)C3CCCCCC3)cc2)C1` [Example 2], for which the pIC50 is 6.96. On to `CC(=O)N1C[C@H](c2ccc(NC(=O)[C@@H](NC(=O)c3ccnn3C(C)C)C3CCCCCC3)cc2)[C@H](C(=O)N2CC(F)(F)C2)C1` [Example 6], for which the pIC50 was 7.16.

The compound `COC(=O)N1CC(C(=O)N2CC(F)(F)C2)=C(c2ccc3cnc([C@@H](NC(=O)c4ccnn4C(C)C)C4CCC(F)(F)CC4)nc3c2)C1` [Example 46] showed a pIC50 of 5.22. In turn, `CC(=O)N1C[C@H](C(=O)N2CCN(C)CC2)[C@@H](c2ccc(NC(=O)[C@@H](NC(=O)c3ccnn3C(C)C)C3CCCCCC3)cc2)C1` [Example 49] showed a pIC50 of 5.73. The value for `CC(C)n1nccc1C(=O)N[C@H](c1nc2c(F)cc(C3=C(C(=O)N4CC(F)(F)C4)CN(C(=O)OCc4ccccc4)C3)cc2[nH]1)C1CCCCCC1` [Example 50] was 6.38.

With `CC(=O)N1CC(C(=O)N2CC(F)(F)C2)C(c2cc(F)c3nc([C@@H](NC(=O)c4ccnn4C(C)C)C4CCCCCC4)[nH]c3c2)C1` (stereo partly drawn) [Example 51], the pIC50 is 6.93. For `CC(=O)N1C[C@H](C(=O)NCC(C)(F)F)[C@@H](c2ccc(NC(=O)[C@@H](NC(=O)c3ccnn3C(C)C)C3CCCCCC3)cc2)C1` [Example 52] the value was 6.99; for `COC(=O)N1CC(C(=O)N2CC(F)(F)C2)C(c2cc(F)c3nc([C@@H](NC(=O)c4ccnn4C(C)C)C4CCCCCC4)[nH]c3c2)C1` (stereo partly drawn) [Example 53], 6.27; for `CC(=O)N1C[C@H](C(=O)N2CC(F)(F)C(F)(F)C2)[C@@H](c2ccc(NC(=O)[C@@H](NC(=O)c3ccnn3C(C)C)C3CCCCCC3)cc2)C1` [Example 54], 7.54. For `COC(=O)N1C[C@H](C(=O)N2CC(F)(F)C2)[C@@H](c2ccc(NC(=O)[C@@H](NC(=O)c3ccnn3C(C)C)C3CCC(F)(F)CC3)cc2)C1` [Example 55] the value was 6.03; for `COC(=O)N1C[C@H](C(=O)N2CC(F)(F)C2)[C@@H](c2ccc(NC(=O)[C@@H](NC(=O)c3nonc3C)C3CCC(F)(F)CC3)cc2)C1` [Example 56], 5.84. In turn, `COC(=O)N1C[C@H](C(=O)N2CC(F)(F)C(F)(F)C2)[C@@H](c2ccc(NC(=O)[C@@H](NC(=O)c3ccnn3C(C)C)C3CCCCCC3)cc2)C1` [Example 57] showed a pIC50 of 7.33. For `CC(C)n1nccc1C(=O)N[C@H](C(=O)Nc1ccc([C@H]2CN(C(=O)N(C)C)C[C@@H]2C(=O)N2CC(F)(F)C(F)(F)C2)cc1)C1CCCCCC1` [Example 58] the value was 7.41. `CC(C)n1nccc1C(=O)N[C@H](C(=O)Nc1ccc([C@H]2CN(C(=O)CCC(F)(F)F)C[C@@H]2C(=O)N2CC(F)(F)C(F)(F)C2)cc1)C1CCCCCC1` [Example 59] showed a negative logarithm of the IC50 (pIC50) of 6.85. With `CC(=O)N1C[C@H](C(=O)N2CC(F)(F)C(F)(F)C2)[C@@H](c2ccc(NC(=O)[C@@H](NC(=O)c3ccnn3C(C)C)C3CCC(F)(F)CC3)cc2)C1` [Example 60], the pIC50 was 6.50. In the case of `COC(=O)N1C[C@H](C(=O)N2CC(F)(F)C(F)(F)C2)[C@@H](c2ccc(NC(=O)[C@@H](NC(=O)c3ccnn3C(C)C)C3CCCCCC3)cc2F)C1` [Example 61], the pIC50 is 7.18. With `CC(=O)N1CC(c2ccc(NC(=O)[C@@H](NC(=O)c3ccnn3C(C)C)C(C3CC3)C3CC3)cc2)[C@@H](C(=O)N2CC(F)(F)C(F)(F)C2)C1` (stereo partly drawn) [Example 63], the pIC50 was 6.88. The value for `CC(=O)N1C[C@H](c2ccc(NC(=O)[C@@H](NC(=O)c3ccnn3C(C)C)C3CCCCCC3)cc2)[C@H](C(=O)N2CC(F)(F)C(F)(F)C2)C1` [Example 64] was 7.94; that for `CC(=O)N1C[C@H](C(=O)N2CC(F)(F)C(F)(F)C2)[C@H](c2ccc(NC(=O)[C@@H](NC(=O)c3ccnn3C(C)C)C3CCCCCC3)cc2)C1` [Example 65] was 7.24. On to `CC(=O)N1C[C@H](c2ccc(NC(=O)[C@@H](NC(=O)c3ccnn3C(C)C)C3CCCCCC3)cc2)[C@H](C(=O)NCC(F)(F)F)C1` [Example 66], for which the pIC50 was 7.35. For `CC(=O)N1C[C@H](c2ccc(NC(=O)[C@@H](NC(=O)c3ccnn3C(C)C)C3CCCCCC3)c(F)c2)[C@H](C(=O)N2CC(F)(F)C(F)(F)C2)C1` [Example 67], the pIC50 is 7.50. For the compound `CC(=O)N1C[C@H](C(=O)N(C)CC(F)(F)F)[C@@H](c2ccc(NC(=O)[C@@H](NC(=O)c3ccnn3C(C)C)C3CCCCCC3)cc2)C1` [Example 68], the pIC50 was 7.31.
